These results are taken from patent US4681882A, “4-alkoxy-pyrido[2,3-d]pyrimidine derivatives” (Godecke Aktiengesellschaft, priority 1984, dated 1987).

Assay [1] relates to arteria coronaria vessel rings. In words: Inhibition of K^+ depolarization contraction of isolated vessel rings (a. coronaria) in the organ bath. In kind it is cell-based. The settings on record: rabbit a. coronaria rings, mean diameter 0.5-1.0 mm, potassium depolarization in Tyrode's solution, read-out: Concentration (IC50) effecting a semimaximal inhibition of the K^+ -depolarization contraction of vessel rings, a. coronaria. The text has this: (§1) Of rabbits (vessel ring segments of arteria basilaris and a. coronaria are mounted in an organ bath in a way to allow the measurement of isometric contractions. Contractile activity is elicited by a potassium depolarization in Tyrode's solution. This experimental set-up is a well-known standard model for the identification of substances blocking the calcium channels opened during the potassium depolarization (Fleckenstein, Calcium Antagonism in Heart and Smooth Muscle, J. Wiley & Sons, 1983).
(§2) Concentrations (IC50, mol/l) of compounds effecting a semimaxi-
(§3) mal inhibition of the K^+ -depolarization contraction of vessel
(§4) in the organ bath. A. bas. = arteria basilaris, a cor. = arteria
(§5) coronaria of the rabbit; mean diameter 0.5-1.0 mm.

Assay [2] deals with arteria basilaris vessel rings. In words: Inhibition of K^+ depolarization contraction of isolated vessel rings (a. basilaris) in the organ bath. The assay is classed as cell-based. As to conditions: rabbit a. basilaris rings, mean diameter 0.5-1.0 mm, potassium depolarization in Tyrode's solution, read-out: Concentration (IC50) effecting a semimaximal inhibition of the K^+ -depolarization contraction of vessel rings, a. basilaris.
Text: as §1, §2, §3, §4, §5

In the case of `COc1ncnc2c1C(c1cccc([N+](=O)[O-])c1)C(C(=O)OC(C)C)=C(C)N2` (racemic) [Example 2, (±)-5,8-Dihydro-4-methoxy-7-methyl-5-(3-nitrophenyl)pyrido[2,3-d]pyrimidine-6-carboxylic acid isopropyl ester], the IC50 came out at 140 nM in assay [1] and 2.5 nM in assay [2].

As to `CCOC(=O)C1=C(N)Nc2ncnc(OC(C)C)c2C1c1ccccc1OC` (racemic) [Example 1e, (±)-7-Amino-5,8-dihydro-4-isopropoxy-5-(2-methoxyphenyl)pyrido[2,3-d]pyrimidine-6-carboxylic acid ethyl ester], the IC50 in assay [1] was 73 nM; in assay [2], 2800 nM.

Take `COC(=O)C1=C(C)Nc2ncnc(OC(C)C)c2C1c1ccccc1C(F)(F)F` (racemic) [Example 1c, (±)-5,8-Dihydro-4-isopropoxy-7-methyl-5-(2-trifluromethylphenyl)pyrido[2,3-d]pyrimidine-6-carboxylic acid methyl ester]: the IC50 in assay [1] was 45 nM; in assay [2] it was 40 nM.

With `COCCOC(=O)C1=C(C)Nc2ncnc(OC(C)C)c2C1c1cccc([N+](=O)[O-])c1` (racemic) [Example 1b, (±)-5,8-Dihydro-4-isopropoxy-7-methyl-5-(3-nitrophenyl)pyrido[2,3-d]pyrimidine-6-carboxylic acid(2-methoxy)ethyl ester], the figures for the IC50 in assay [1] and in assay [2] were 34 nM and 39 nM, respectively.

In the case of `COC(=O)C1=C(C)Nc2ncnc(OC(C)C)c2C1c1cccc([N+](=O)[O-])c1` (racemic) [Example 1g, (±)-5,8-Dihydro-4-isopropoxy-7-methyl-5-(3-nitrophenyl)pyrido[2,3-d]pyrimidine-6-carboxylic acid methyl ester], the IC50 in assay [1] worked out at 230 nM; in assay [2], 28 nM.

Regarding `CC1=C(C(=O)OC(C)C)C(c2cccc([N+](=O)[O-])c2)c2c(ncnc2OC(C)C)N1` (racemic) [Example 1d, (±)-5,8)Dihydro-4-isopropoxy-7-methyl-5-(3-nitrophenyl)pyrido[2,3-d]pyrimidine-6-carboxylic acid isopropyl ester], the IC50 in assay [1] amounted to 160 nM; in assay [2] it was 33 nM.

For the compound `CCOC(=O)C1=C(C)Nc2ncnc(OC(C)C)c2C1c1ccccc1C(F)(F)F` (racemic) [Example 1f, (±)-5,8-Dihydro-4-isopropoxy-7-methyl-5-(2-trifluoromethylphenyl)pyrido[2,3-d]pyrimidine-6-carboxylic acid ethyl ester], the values for the IC50 in assay [1] and in assay [2] were 34 nM and 38 nM, respectively.
